From patent US20240003908A1, “POLYOL BIOMARKERS FOR CONGENITAL DISORDERS OF GLYCOSYLATION” (Mayo Foundation for Medical Education and Research, priority 2020, published 2024)

Test system: PMM-deficient fibroblasts
Experiment: Glycoproteomics of PMM-deficient fibroblasts treated with epalrestat or vehicle
Type: cell-based, human
From the text: Proteomics and glycoproteomics: Cell were scraped in PBS, pH 7.4 and sonicated with a tip sonicator at 40% amplitude for 3 cycles of 10 seconds each. Equal amount of proteins were digested with trypsin as described elsewhere (Mun et al., Anal Chem 92:14466-14475, 2020). The digested peptides were labeled with tandem mass tag (TMT) reagents as per the manufacturer's instructions (ThermoFisher). Labelled samples were pooled, and either size-exclusion chromatography or basic pH reversed-phase fractionation was performed. An aliquot of dried peptides was resuspended in 100 μL of 0.1% formic acid and injected into Superdex peptide 10/300 column (GE Healthcare). Twenty-one (21) early fractions were collected starting at 10 minutes after injection (total run time of 130 minutes) and analyzed by LC-MS/MS as described elsewhere (Mun et al., supra). Another aliquot of total peptides was cleaned up by C18 TopTips (Glygen) and fractionated by bRPLC on a reversed phase C18 column (4.6×100 mm column). Twelve (12) fractions were dried and re-suspended in 0.1% formic acid for LC-MS/MS analysis.
A modification of the LC-MS/MS parameters described by Mun et al. (supra) were used. Specifically, 21 early fractions from SEC and 12 fractions of bRPLC were analyzed by Orbitrap Exploris480 mass spectrometer (Thermo Fisher Scientific) coupled to an EASY-Spray column (Thermo Fisher Scientific). Every run was 130 minutes with a flow rate of 300 nL/minute. The gradient used for separation was: equilibration at 3% solvent B from 0 to 4 minutes, 3% to 10% sol B from 4 to 10 minutes, 10% to 35% sol B from 10.1 to 125 minutes, and 35% to 80% sol B from […]. All experiments were done in DDA mode with the top 15 ions isolated at a window of 0.7 m/z and a default charge state of +2. Charge states ranging from +2 to +7 were considered for MS/MS events. Stepped collision energy was applied to precursors at normalized collision energies of 15, 25, and 40. The MS precursor mass range was set to 375 to 2000 m/z and 100 to 2000 for MS/MS. The automatic gain control for MS and MS/MS were 1×10^6 and 1×10^5 and the injection times to reach AGC were 50 ms and 250 ms, respectively. 60 second dynamic exclusion was applied. Data acquisition was performed with the option of Lock mass (441.1200025 m/z) for all data.
Database searching and analysis: The publicly available software pGlyco Version 2.2.0 was used (Zeng et al., Sci Rep 6:25102, 2016; and Liu et al., Nat Commun 8:438, 2017). A glycan database containing 8,092 entries and Uniprot Human Reviewed protein sequences (20,432 entries) were used as protein sequence fasta files. Cleavage specificity was set to fully tryptic with 2 missed cleavages, and precursor and fragment tolerance were set to 5 and 20 ppm. […] Reporter ion quantification was performed in Proteome Discoverer 2.5 using “reporter ion quantifier” node and Ids were matched with quantitation on a scan-to-scan basis (MS/MS). […]
To compare responders (patients who had more than a 20% increase in enzyme activity after epalrestat treatment) to non-responders (patients who had less than a 20% increase in enzyme activity after epalrestat treatment) and gauge the increase in glycosylation upon epalrestat treatment, linear fold changes (treated/untreated) were calculated for each of these 412 glycopeptides. The fold changes of non-responders were subtracted from the fold changes of the responders, and the fold change difference (delta fold change) was calculated. […]

SMILES: CC(/C=C1\SC(=S)N(CC(=O)O)C1=O)=C\c1ccccc1 [epalrestat]
- share of reduced glycopeptides improved post-treatment (665 of 1,448): 46%
- improved glycopeptides that had reduced glycosylation in PMM-deficient fibroblasts compared to controls (among the 412 improved): 97 glycopeptides
- number of glycopeptides improved post-treatment, becoming similar to controls (of 1,448 reduced in untreated PMM-deficient fibroblasts): 665 glycopeptides
- number of glycopeptides with differential (enhanced) abundance after epalrestat (paired epalrestat vs vehicle): 412 glycopeptides
- ICAM-1 Asn267 glycopeptide (Hex7HexNAc6NeuAc2Fuc5) increase in abundance (paired epalrestat vs. vehicle analysis): 10%
